Consider eight compounds from patent publication US10947188B2, “Small molecule ferroptosis inducers” (THE TRUSTEES OF COLUMBIA UNIVERSITY IN THE CITY OF NEW YORK, priority 2016, dated 2021).

For orientation: EC50 means the concentration giving half of the maximal effect.

The subject of the assay is BJeLR. Put plainly: Modulatory profiling: Alamar Blue viability, lethal compound cotreated with death modulator (EC50, AUC). Format: cell-based, human. Further details: AUC, modulator BJ.Gd3+ / AUC, modulator BJ.LNAME / AUC, modulator BJ.Lmin / AUC, modulator BJ.3MA / AUC, modulator BJ.ALLN / AUC, modulator BJ.Boc D / AUC, modulator BJ.CHX / AUC, modulator BJ.Co2+ / AUC, modulator BJ.Nec-1 / AUC, modulator BJ.Pepstatin / AUC, modulator BJ.TLCK / AUC, modulator BJ.atoc / AUC, modulator BJ.trolox / AUC, modulator BJ.zVAD: unit not given beside the values. To be noted: for AUC, modulator BJ.3MA / AUC, modulator BJ.ALLN / AUC, modulator BJ.Boc D / AUC, modulator BJ.CHX / AUC, modulator BJ.Co2+ / AUC, modulator BJ.DPQ / AUC, modulator BJ.Gd3+ / AUC, modulator BJ.LNAME / AUC, modulator BJ.Lmin/NAD+ / AUC, modulator BJ.Lmin / AUC, modulator BJ.NAD+ / AUC, modulator BJ.NMMA / AUC, modulator BJ.Nec-1 / AUC, modulator BJ.Pepstatin / AUC, modulator BJ.TLCK / AUC, modulator BJ.atoc / AUC, modulator BJ.trolox / AUC, modulator BJ.zVAD: BJeLR cells, modulatory profile value (AUC); for AUC, modulator BJ.3MA: lethal compound cotreated with modulator 3MA; for AUC, modulator BJ.ALLN: lethal compound cotreated with modulator ALLN; for AUC, modulator BJ.Boc D: lethal compound cotreated with modulator Boc D; for AUC, modulator BJ.CHX: lethal compound cotreated with modulator CHX; for AUC, modulator BJ.Co2+: lethal compound cotreated with modulator Co2+; for AUC, modulator BJ.DPQ: lethal compound cotreated with modulator DPQ; for AUC, modulator BJ.Gd3+: lethal compound cotreated with modulator Gd3+; for AUC, modulator BJ.LNAME: lethal compound cotreated with modulator LNAME; for AUC, modulator BJ.Lmin/NAD+: lethal compound cotreated with modulator Lmin/NAD+; for AUC, modulator BJ.Lmin: lethal compound cotreated with modulator Lmin; for AUC, modulator BJ.NAD+: lethal compound cotreated with modulator NAD+; for AUC, modulator BJ.NMMA: lethal compound cotreated with modulator NMMA; for AUC, modulator BJ.Nec-1: lethal compound cotreated with modulator Nec-1; for AUC, modulator BJ.Pepstatin: lethal compound cotreated with modulator Pepstatin; for AUC, modulator BJ.TLCK: lethal compound cotreated with modulator TLCK; for AUC, modulator BJ.atoc: lethal compound cotreated with modulator atoc; for AUC, modulator BJ.trolox: lethal compound cotreated with modulator trolox; for AUC, modulator BJ.zVAD: lethal compound cotreated with modulator zVAD; for EC50: Homo sapiens, BJeLR, 48 h.

Where a SMILES comes first, the peptide text is derived from it. The star is where a group is joined. Cbz = O=C(OCc1ccccc1)*

In the case of `O=c1c(N2CCCC2)c(Cl)cnn1-c1ccccc1` [CIL20], the “AUC, modulator BJ.3MA” value turned out to be 0.055; the “AUC, modulator BJ.ALLN” value is listed as −0.09098; the “AUC, modulator BJ.Boc D” value is −0.06373; the “AUC, modulator BJ.CHX” value is listed as −0.009677. Also, the “AUC, modulator BJ.Co2+” value stood at 0.04763; the “AUC, modulator BJ.DPQ” value is −0.02696; the “AUC, modulator BJ.Gd3+” value is reported as 0.04266; the “AUC, modulator BJ.LNAME” value is recorded as −0.001747. Further, the “AUC, modulator BJ.Lmin/NAD+” value is given as −0.03734; the “AUC, modulator BJ.Lmin” value is recorded as −0.02603; the “AUC, modulator BJ.NAD+” value was 0.03043; the “AUC, modulator BJ.NMMA” value is given as −0.01046. The “AUC, modulator BJ.Nec-1” value came out at 0.0115; the “AUC, modulator BJ.Pepstatin” value is reported as −0.002516; the “AUC, modulator BJ.TLCK” value is on record as −0.00743; the “AUC, modulator BJ.atoc” value is −0.005113. For the same compound, the “AUC, modulator BJ.trolox” value is 0.02308 and the “AUC, modulator BJ.zVAD” value is listed as −0.04036.
Consider `CC(C)=CCCC1=CCC(CNCCCN(C)C)C(C)C1` (centres unmarked) [CIL28], for which the “AUC, modulator BJ.3MA” value is listed as 0.0433; the “AUC, modulator BJ.ALLN” value is on record as −0.02065; the “AUC, modulator BJ.Boc D” value is −0.02549; the “AUC, modulator BJ.CHX” value is recorded as −0.01119. For the same compound, the “AUC, modulator BJ.Co2+” value was 0.03417; the “AUC, modulator BJ.DPQ” value is 0.009235; the “AUC, modulator BJ.Gd3+” value is listed as −0.07741; the “AUC, modulator BJ.LNAME” value is −0.04858. In addition, the “AUC, modulator BJ.Lmin/NAD+” value is on record as −0.02578; the “AUC, modulator BJ.Lmin” value is on record as −0.053; the “AUC, modulator BJ.NAD+” value is on record as 0.06231; the “AUC, modulator BJ.NMMA” value worked out at 0.000264. The “AUC, modulator BJ.Nec-1” value was 0.005737; the “AUC, modulator BJ.Pepstatin” value is recorded as 0.06166; the “AUC, modulator BJ.TLCK” value is on record as −0.09417; the “AUC, modulator BJ.atoc” value is listed as 0.05295. Also, the “AUC, modulator BJ.trolox” value amounted to 0.06039 and the “AUC, modulator BJ.zVAD” value is listed as 0.006234.
Consider `CS[C@H]1SC[C@H]2C(=O)N(C)[C@@H](C(C)C)C(=O)OC[C@@H](NC(=O)c3cnc4ccccc4n3)C(=O)N[C@@H](C)C(=O)N(C)[C@@H]1C(=O)N(C)[C@@H](C(C)C)C(=O)OC[C@@H](NC(=O)c1cnc3ccccc3n1)C(=O)N[C@@H](C)C(=O)N2C` [Echinomycin], for which the “AUC, modulator BJ.3MA” value was 0.3457; the “AUC, modulator BJ.ALLN” value stood at 0.02426; the “AUC, modulator BJ.Boc D” value is on record as 0.04925; the “AUC, modulator BJ.CHX” value stood at 0.2015. In addition, the “AUC, modulator BJ.Co2+” value came out at 0.09321; the “AUC, modulator BJ.DPQ” value was −0.004325; the “AUC, modulator BJ.Gd3+” value amounted to 0.002041; the “AUC, modulator BJ.LNAME” value turned out to be 0.01199. In addition, the “AUC, modulator BJ.Lmin/NAD+” value came to 0.2351; the “AUC, modulator BJ.Lmin” value amounted to 0.1205; the “AUC, modulator BJ.NAD+” value is listed as 0.2292; the “AUC, modulator BJ.NMMA” value came to 0.01082. For the same compound, the “AUC, modulator BJ.Nec-1” value is recorded as −0.01901; the “AUC, modulator BJ.Pepstatin” value is given as −0.004369; the “AUC, modulator BJ.TLCK” value is listed as −0.001724; the “AUC, modulator BJ.atoc” value was determined as 0.1681. Moreover, the “AUC, modulator BJ.trolox” value is listed as −0.04322 and the “AUC, modulator BJ.zVAD” value turned out to be 0.005973.
As for `CC(C)C[C@@H](C=O)NC(=O)[C@H](CC(C)C)NC(=O)[C@H](CC(C)C)NC(=O)OCc1ccccc1` [MG132, reference compound] (Cbz-Leu-Leu-Leu-aldehyde), the “AUC, modulator BJ.3MA” value is recorded as −0.04346; the “AUC, modulator BJ.ALLN” value was −0.2701; the “AUC, modulator BJ.Boc D” value is 0.04216; the “AUC, modulator BJ.CHX” value is reported as 0.2476. Further, the “AUC, modulator BJ.Co2+” value worked out at 0.1849; the “AUC, modulator BJ.DPQ” value is −0.01327; the “AUC, modulator BJ.Gd3+” value is 0.03163; the “AUC, modulator BJ.LNAME” value was 0.01789. The “AUC, modulator BJ.Lmin/NAD+” value is on record as 0.2064; the “AUC, modulator BJ.Lmin” value is on record as 0.1487; the “AUC, modulator BJ.NAD+” value amounted to 0.04274; the “AUC, modulator BJ.NMMA” value is listed as 0.02073. In addition, the “AUC, modulator BJ.Nec-1” value is given as −0.0504; the “AUC, modulator BJ.Pepstatin” value is recorded as −0.02291; the “AUC, modulator BJ.TLCK” value is given as 0.1241; the “AUC, modulator BJ.atoc” value is −0.002326. Also, the “AUC, modulator BJ.trolox” value was −0.01449 and the “AUC, modulator BJ.zVAD” value is recorded as −0.08452.
Consider `CC[C@@]1(O)C(=O)OCc2c1cc1n(c2=O)Cc2cc3ccccc3nc2-1` [Camptothecin], for which the “AUC, modulator BJ.3MA” value is −0.02027; the “AUC, modulator BJ.ALLN” value was 0.03368; the “AUC, modulator BJ.Boc D” value is given as 0.07983; the “AUC, modulator BJ.CHX” value turned out to be 0.1233. Also, the “AUC, modulator BJ.Co2+” value is reported as 0.02899; the “AUC, modulator BJ.DPQ” value was −0.01119; the “AUC, modulator BJ.Gd3+” value is −0.007898; the “AUC, modulator BJ.LNAME” value is 0.003206. The “AUC, modulator BJ.Lmin/NAD+” value came out at 0.1164; the “AUC, modulator BJ.Lmin” value came to 0.02947; the “AUC, modulator BJ.NAD+” value is 0.112; the “AUC, modulator BJ.NMMA” value was −0.006852. In addition, the “AUC, modulator BJ.Nec-1” value came to 0.02477; the “AUC, modulator BJ.Pepstatin” value is recorded as 0.01408; the “AUC, modulator BJ.TLCK” value came to 0.02306; the “AUC, modulator BJ.atoc” value came out at 0.01158. The “AUC, modulator BJ.trolox” value came out at 0.04874 and the “AUC, modulator BJ.zVAD” value turned out to be 0.08241.
For the compound `CCc1ccc(/C=C2/SC(=O)N(CCC(C)NCCCN3CCOCC3)C2=O)cc1` (centres unmarked) [CIL46], the “AUC, modulator BJ.3MA” value stood at 0.1884; the “AUC, modulator BJ.ALLN” value is on record as −0.01374; the “AUC, modulator BJ.Boc D” value is given as −0.005903; the “AUC, modulator BJ.CHX” value came to 0.1598. The “AUC, modulator BJ.Co2+” value was −0.1389; the “AUC, modulator BJ.DPQ” value stood at 0.03979; the “AUC, modulator BJ.Gd3+” value is −0.05606; the “AUC, modulator BJ.LNAME” value is −0.02185. Moreover, the “AUC, modulator BJ.Lmin/NAD+” value is listed as 0.1825; the “AUC, modulator BJ.Lmin” value worked out at 0.2583; the “AUC, modulator BJ.NAD+” value is −0.02371; the “AUC, modulator BJ.NMMA” value worked out at 0.03363. In addition, the “AUC, modulator BJ.Nec-1” value is 0.08455; the “AUC, modulator BJ.Pepstatin” value is −0.01313; the “AUC, modulator BJ.TLCK” value is recorded as −0.09715; the “AUC, modulator BJ.atoc” value is recorded as 0.1051. Besides, the “AUC, modulator BJ.trolox” value is listed as 0.04647 and the “AUC, modulator BJ.zVAD” value is −0.05153.
`CC(/C=C/C(=O)NO)=C\[C@@H](C)C(=O)c1ccc(N(C)C)cc1` [TrichostatinA]: the “AUC, modulator BJ.3MA” value is recorded as −0.004309; the “AUC, modulator BJ.ALLN” value is reported as −0.08774; the “AUC, modulator BJ.Boc D” value was 0.09612; the “AUC, modulator BJ.CHX” value came to 0.2588. Further, the “AUC, modulator BJ.Co2+” value was found to be 0.3091; the “AUC, modulator BJ.DPQ” value is given as −0.009523; the “AUC, modulator BJ.Gd3+” value is reported as −0.008802; the “AUC, modulator BJ.LNAME” value is given as −0.04203. For the same compound, the “AUC, modulator BJ.Lmin/NAD+” value amounted to 0.1597; the “AUC, modulator BJ.Lmin” value was 0.08423; the “AUC, modulator BJ.NAD+” value turned out to be 0.05544; the “AUC, modulator BJ.NMMA” value is recorded as −0.01861. Moreover, the “AUC, modulator BJ.Nec-1” value is recorded as −0.04751; the “AUC, modulator BJ.Pepstatin” value is −0.01284; the “AUC, modulator BJ.TLCK” value was determined as 0.02879; the “AUC, modulator BJ.atoc” value is −0.01806. Also, the “AUC, modulator BJ.trolox” value is −0.02672 and the “AUC, modulator BJ.zVAD” value is recorded as 0.1198.
As for `O=C(CCl)N(c1ccccc1)c1c[nH]c2ccccc12` [CIL69], the “AUC, modulator BJ.3MA” value is 0.07713; the “AUC, modulator BJ.ALLN” value is reported as −0.0005222; the “AUC, modulator BJ.Boc D” value is recorded as −0.003228; the “AUC, modulator BJ.CHX” value is recorded as −0.03495. Further, the “AUC, modulator BJ.Co2+” value turned out to be 0.1724; the “AUC, modulator BJ.DPQ” value was 0.02521; the “AUC, modulator BJ.Gd3+” value worked out at 0.02983; the “AUC, modulator BJ.LNAME” value is 0.005201. In addition, the “AUC, modulator BJ.Lmin/NAD+” value worked out at 0.1449; the “AUC, modulator BJ.Lmin” value is 0.1799; the “AUC, modulator BJ.NAD+” value was 0.02203; the “AUC, modulator BJ.NMMA” value is listed as −0.02133. For the same compound, the “AUC, modulator BJ.Nec-1” value came out at 0.1721; the “AUC, modulator BJ.Pepstatin” value was found to be 0.0531; the “AUC, modulator BJ.TLCK” value worked out at 0.1963. Further, the concentration giving a half-maximal response (EC50) (DMSO) is 193 nM. The EC50 (cotreated with Lmim_NAD) came out at 889 nM. The EC50 (cotreated with antioxidant Trolox) was found to be 2050 nM. Besides, the EC50 (cotreated with antioxidant atoc) stood at 1780 nM. In addition, the EC50 (cotreated with iron-chelator Lmim) was found to be 976 nM.
